Data taken from ChEMBL document CHEMBL2396621, “Design, synthesis and biological evaluation of 2-mercapto-3-phenethylquinazoline bearing anilide fragments as potential antitumor agents: molecular docking study” (2013).

Legend:
Format in all cases: functional
CAKI-1 = experiment: Cytotoxicity against human Caki1 cells assessed as growth inhibition at 10 uM after 48 hrs by coulter counter analysis; details: CAKI-1, 48 h, read-out: GI
HT-29 = experiment: Cytotoxicity against human HT-29 cells assessed as growth inhibition at 10 uM after 48 hrs by coulter counter analysis; details: HT-29, 48 h, read-out: GI
[1] = Cytotoxicity against human EKVX cells assessed as growth inhibition at 10 uM after 48 hrs by coulter counter analysis; details: read-out: GI
SK-MEL-5 = experiment: Cytotoxicity against human SK-MEL-5 cells assessed as growth inhibition at 10 uM after 48 hrs by coulter counter analysis; details: SK-MEL-5, 48 h, read-out: GI
MDA-MB-435 = experiment: Cytotoxicity against human MDA-MB-435 cells assessed as growth inhibition at 10 uM after 48 hrs by coulter counter analysis; details: MDA-MB-435, 48 h, read-out: GI
NCI-H322M = experiment: Cytotoxicity against human NCI-H322M cells assessed as growth inhibition at 10 uM after 48 hrs by coulter counter analysis; details: read-out: GI
HCT-15 = experiment: Cytotoxicity against human HCT15 cells assessed as growth inhibition at 10 uM after 48 hrs by coulter counter analysis; details: HCT-15, 48 h, read-out: GI
SK-OV-3 = experiment: Cytotoxicity against human SKOV3 cells assessed as growth inhibition at 10 uM after 48 hrs by coulter counter analysis; details: SK-OV-3, 48 h, read-out: GI
[2] = Cytotoxicity against human NCI-ADR-RES cells assessed as growth inhibition at 10 uM after 48 hrs by coulter counter analysis; details: read-out: GI
HOP-62 = experiment: Cytotoxicity against human HOP62 cells assessed as growth inhibition at 10 uM after 48 hrs by coulter counter analysis; details: HOP-62, 48 h, read-out: GI
UO-31 = experiment: Cytotoxicity against human UO31 cells assessed as growth inhibition at 10 uM after 48 hrs by coulter counter analysis; details: UO-31, 48 h, read-out: GI
OVCAR-3 = experiment: Cytotoxicity against human OVCAR3 cells assessed as growth inhibition at 10 uM after 48 hrs by coulter counter analysis; details: OVCAR-3, 48 h, read-out: GI
DU-145 = experiment: Cytotoxicity against human DU145 cells assessed as growth inhibition at 10 uM after 48 hrs by coulter counter analysis; details: DU-145, 48 h, read-out: GI
MDA-MB-468 = experiment: Cytotoxicity against human MDA-MB-468 cells assessed as growth inhibition at 10 uM after 48 hrs by coulter counter analysis; details: MDA-MB-468, 48 h, read-out: GI
A498 = experiment: Cytotoxicity against human A498 cells assessed as growth inhibition at 10 uM after 48 hrs by coulter counter analysis; details: A498, 48 h, read-out: GI
UACC-257 = experiment: Cytotoxicity against human UACC257 cells assessed as growth inhibition at 10 uM after 48 hrs by coulter counter analysis; details: UACC-257, 48 h, read-out: GI
HCC 2998 = experiment: Cytotoxicity against human HCC2998 cells assessed as growth inhibition at 10 uM after 48 hrs by coulter counter analysis; details: HCC 2998, 48 h, read-out: GI
SF-295 = experiment: Cytotoxicity against human SF295 cells assessed as growth inhibition at 10 uM after 48 hrs by coulter counter analysis; details: SF-295, 48 h, read-out: GI
M14 = experiment: Cytotoxicity against human M14 cells assessed as growth inhibition at 10 uM after 48 hrs by coulter counter analysis; details: M14, 48 h, read-out: GI
SF-539 = experiment: Cytotoxicity against human SF539 cells assessed as growth inhibition at 10 uM after 48 hrs by coulter counter analysis; details: SF-539, 48 h, read-out: GI
HCT-116 = experiment: Cytotoxicity against human HCT116 cells assessed as growth inhibition at 10 uM after 48 hrs by coulter counter analysis; details: HCT-116, 48 h, read-out: GI
OVCAR-4 = experiment: Cytotoxicity against human OVCAR4 cells assessed as growth inhibition at 10 uM after 48 hrs by coulter counter analysis; details: OVCAR-4, 48 h, read-out: GI
U-251 = experiment: Cytotoxicity against human U251 cells assessed as growth inhibition at 10 uM after 48 hrs by coulter counter analysis; details: U-251, 48 h, read-out: GI
SK-MEL-28 = experiment: Cytotoxicity against human SK-MEL-28 cells assessed as growth inhibition at 10 uM after 48 hrs by coulter counter analysis; details: SK-MEL-28, 48 h, read-out: GI
MDA-MB-231 = experiment: Cytotoxicity against human MDA-MB-231 cells assessed as growth inhibition at 10 uM after 48 hrs by coulter counter analysis; details: MDA-MB-231, 48 h, read-out: GI
SNB-19 = experiment: Cytotoxicity against human SNB19 cells assessed as growth inhibition at 10 uM after 48 hrs by coulter counter analysis; details: SNB-19, 48 h, read-out: GI
NCI-H23 = experiment: Cytotoxicity against human NCI-H23 cells assessed as growth inhibition at 10 uM after 48 hrs by coulter counter analysis; details: NCI-H23, 48 h, read-out: GI
COLO 205 = experiment: Cytotoxicity against human COLO205 cells assessed as growth inhibition at 10 uM after 48 hrs by coulter counter analysis; details: COLO 205, 48 h, read-out: GI
SNB-75 = experiment: Cytotoxicity against human SNB75 cells assessed as growth inhibition at 10 uM after 48 hrs by coulter counter analysis; details: SNB-75, 48 h, read-out: GI
T47D = experiment: Cytotoxicity against human T47D cells assessed as growth inhibition at 10 uM after 48 hrs by coulter counter analysis; details: read-out: GI
TK-10 = experiment: Cytotoxicity against human TK10 cells assessed as growth inhibition at 10 uM after 48 hrs by coulter counter analysis; details: TK-10, 48 h, read-out: GI
NCI-H460 = experiment: Cytotoxicity against human NCI-H460 cells assessed as growth inhibition at 10 uM after 48 hrs by coulter counter analysis; details: NCI-H460, 48 h, read-out: GI
UACC-62 = experiment: Cytotoxicity against human UACC62 cells assessed as growth inhibition at 10 uM after 48 hrs by coulter counter analysis; details: UACC-62, 48 h, read-out: GI
ACHN = experiment: Cytotoxicity against human ACHN cells assessed as growth inhibition at 10 uM after 48 hrs by coulter counter analysis; details: read-out: GI
KM12 = experiment: Cytotoxicity against human KM12 cells assessed as growth inhibition at 10 uM after 48 hrs by coulter counter analysis; details: KM12, 48 h, read-out: GI
Malme-3M = experiment: Cytotoxicity against human MALME-3M cells assessed as growth inhibition at 10 uM after 48 hrs by coulter counter analysis; details: read-out: GI
Hs-578T = experiment: Cytotoxicity against human Hs578T cells assessed as growth inhibition at 10 uM after 48 hrs by coulter counter analysis; details: read-out: GI
OVCAR-8 = experiment: Cytotoxicity against human OVCAR8 cells assessed as growth inhibition at 10 uM after 48 hrs by coulter counter analysis; details: OVCAR-8, 48 h, read-out: GI
OVCAR-5 = experiment: Cytotoxicity against human OVCAR5 cells assessed as growth inhibition at 10 uM after 48 hrs by coulter counter analysis; details: OVCAR-5, 48 h, read-out: GI
A549 = experiment: Cytotoxicity against human A549 cells assessed as growth inhibition at 10 uM after 48 hrs by coulter counter analysis; details: A549, 48 h, read-out: GI
SN12C = experiment: Cytotoxicity against human SN12C cells assessed as growth inhibition at 10 uM after 48 hrs by coulter counter analysis; details: read-out: GI
PC-3 = experiment: Cytotoxicity against human PC3 cells assessed as growth inhibition at 10 uM after 48 hrs by coulter counter analysis; details: PC-3, 48 h, read-out: GI
RXF 393 = experiment: Cytotoxicity against human RXF393 cells assessed as growth inhibition at 10 uM after 48 hrs by coulter counter analysis; details: RXF 393, 48 h, read-out: GI
SW-620 = experiment: Cytotoxicity against human SW620 cells assessed as growth inhibition at 10 uM after 48 hrs by coulter counter analysis; details: SW-620, 48 h, read-out: GI
BT-549 = experiment: Cytotoxicity against human BT549 cells assessed as growth inhibition at 10 uM after 48 hrs by coulter counter analysis; details: BT-549, 48 h, read-out: GI
[3] = Cytotoxicity against human ovarian cancer cells after 48 hrs by coulter counter analysis; details: Cancer cell lines
[4] = Cytotoxicity against human non-small cell lung cancer cells after 48 hrs by coulter counter analysis; details: Cancer cell lines
[5] = Cytotoxicity against human leukemia cells after 48 hrs by coulter counter analysis; details: Leukemia cell
[6] = Cytotoxicity against human breast cancer cells after 48 hrs by coulter counter analysis; details: Cancer cell lines
[7] = Cytotoxicity against human prostate cancer cells after 48 hrs by coulter counter analysis; details: Cancer cell lines
[8] = Cytotoxicity against human renal cancer cells after 48 hrs by coulter counter analysis; details: Cancer cell lines
[9] = Cytotoxicity against human CNS cancer cells after 48 hrs by coulter counter analysis; details: Cancer cell lines
[10] = Cytotoxicity against human colon cancer cells after 48 hrs by coulter counter analysis; details: Cancer cell lines
[11] = Cytotoxicity against human melanoma cells after 48 hrs by coulter counter analysis; details: Melanoma cell
[12] = read-out: LC50 (the source's name)

NC(=O)CSc1nc2ccccc2c(=O)n1CCc1ccccc1
12%: inhibition of growth at 10 µM (CAKI-1) | inhibition of growth at 10 µM (A549)
10%: inhibition of growth at 10 µM [1]
34%: inhibition of growth at 10 µM (ACHN)
< 10%: inhibition of growth at 10 µM (HT-29) | inhibition of growth at 10 µM (SK-MEL-5) | inhibition of growth at 10 µM (MDA-MB-435) | inhibition of growth at 10 µM (NCI-H322M) | inhibition of growth at 10 µM (HCT-15) | inhibition of growth at 10 µM (SK-OV-3) | inhibition of growth at 10 µM [2] | inhibition of growth at 10 µM (HOP-62) | inhibition of growth at 10 µM (UO-31) | inhibition of growth at 10 µM (OVCAR-3) | inhibition of growth at 10 µM (DU-145) | inhibition of growth at 10 µM (MDA-MB-468) | inhibition of growth at 10 µM (A498) | inhibition of growth at 10 µM (UACC-257) | inhibition of growth at 10 µM (HCC 2998) | inhibition of growth at 10 µM (SF-295) | inhibition of growth at 10 µM (M14) | inhibition of growth at 10 µM (SF-539) | inhibition of growth at 10 µM (HCT-116) | inhibition of growth at 10 µM (OVCAR-4) | inhibition of growth at 10 µM (U-251) | inhibition of growth at 10 µM (SK-MEL-28) | inhibition of growth at 10 µM (MDA-MB-231) | inhibition of growth at 10 µM (SNB-19) | inhibition of growth at 10 µM (NCI-H23) | inhibition of growth at 10 µM (COLO 205) | inhibition of growth at 10 µM (SNB-75) | inhibition of growth at 10 µM (T47D) | inhibition of growth at 10 µM (TK-10) | inhibition of growth at 10 µM (NCI-H460) | inhibition of growth at 10 µM (UACC-62) | inhibition of growth at 10 µM (KM12) | inhibition of growth at 10 µM (Malme-3M) | inhibition of growth at 10 µM (Hs-578T) | inhibition of growth at 10 µM (OVCAR-8) | inhibition of growth at 10 µM (OVCAR-5) | inhibition of growth at 10 µM (SN12C) | inhibition of growth at 10 µM (PC-3) | inhibition of growth at 10 µM (RXF 393) | inhibition of growth at 10 µM (SW-620) | inhibition of growth at 10 µM (BT-549)

O=c1[nH]cc(F)c(=O)[nH]1 [FLUOROURACIL]
45.6 µM: GI50 [8]
8.4 µM: GI50 [10]
22.7 µM: GI50 [7]
76.4 µM: GI50 [6]
> 100 µM: TGI [3] | GI50 [4] | TGI [4] | CC50 [4, 12] | TGI [5] | TGI [6] | TGI [7] | CC50 [7, 12] | TGI [8] | TGI [9] | CC50 [9, 12] | TGI [10] | CC50 [10, 12] | TGI [11]
61.4 µM: GI50 [3]
70.6 µM: GI50 [11]
